Consider 16 compounds from EPA's ToxValDB 9.5.

Data set [1] relates to Rattus norvegicus. Particulars: oral.
Data set [2] deals with Canidae. Particulars: oral, Dog Other.
Data set [3] concerns Canidae. The following applies: oral, M/F, Dog Other.
In data set [4] the test system is Rattus norvegicus. Particulars: for LEL: uterotrophic, Active.
Data set [5] relates to Rattus norvegicus. The following applies: oral. The source holds these as a separate data set.
The test system of data set [6] is Mus musculus. Particulars: uterotrophic, Active.
Data set [7] relates to Rattus norvegicus. The following applies: repeat dose other; oral.
In data set [8] the test system is Rattus norvegicus. Particulars: short-term; duration: 28 days; oral; gavage; Sprague-Dawley.
The subject of data set [9] is Rattus norvegicus. The following applies: chronic; duration: 2 years; oral; gavage; M/F; kidney pathology.
Data set [10] concerns Mus musculus. Particulars: chronic; duration: 103 weeks; oral; gavage; M/F; B6C3F1; hepatic.
Where [11] appears, read: chronic, duration: 2 years, diet, increased hemosiderin deposition, serum alkaline phosphatase, and liver weight (females).
[12] abbreviates: chronic, Decreased body weight gain, altered serum chemistry parameters (decreased serum cholesterol, total protein, and serum albumin and globulin ….
Setting [13] is: chronic, duration: 2 years, diet, increased serum alkaline phosphatase and liver weight, and hepatic lesions.
Setting [14] is: duration: 3 days, injection, subcutaneous.
The mark [15] stands for this setting: chronic, duration: 12 months, diet, increase in methemoglobin + Increased liver weights.
Setting [16] is: Hershberger, duration: 10 days, oral, gavage, Sprague-Dawley, active + Negative + Antiandrogenic + anti-androgenic + DP and LABC decreased in high dose.

Values joined by “and” are separate entries in the source; they are usually repeats but may differ in a detail not shown here. Equal entries are not always repeated.

As a reminder, the LOAEL is the lowest tested level that showed an adverse finding. Consider `Nc1cccc([N+](=O)[O-])c1` [3-Nitroaniline], for which the LOAEL in the data set on Rattus norvegicus [1] (short-term, duration: 28 days, gavage, M/F, Fischer 344) was determined as 15 mg/kg-day.
The NOAEL is the highest tested level that showed no adverse finding. Regarding `CCN(C=O)CC` [Diethylformamide], the NOAEL in the data set on Rattus norvegicus [1] (chronic, duration: 73 weeks, gavage, M, Wistar, Whole Body Effects) was found to be 1.1 mg/kg-day.
Consider `CCNc1nc(Cl)nc(NC(C)(C)C#N)n1` [Cyanazine], for which the NOEL in the data set on Canidae [2] (chronic, duration: 1 years, diet, Blood: Altered clinical chemistry parameters + Blood: Increased platelet count + Whole body: Decreased weight) turned out to be 0.625 mg/kg-day.
For the compound `CC(C)N(C(=O)SCC(Cl)=C(Cl)Cl)C(C)C` [Tri-allate], in the data set with Canidae [3] (setting [11]), the LOAEL was 4.25 mg/kg-day and the NOAEL came out at 1.27 mg/kg-day. Moreover, the NOAEL in the data set on Canidae [2] (chronic, duration: 24 months, diet, Liver: Effects + Spleen: Effects) worked out at 1.27 mg/kg-day.
Regarding `Clc1cc(Cl)c(Cl)c(-c2cc(Cl)c(-c3cc(Cl)c(Cl)c(Cl)c3)c(Cl)c2Cl)c1` [Aroclor 5460], the NOAEL with Rattus norvegicus [1] (chronic, duration: 95 days, diet, M, albino) turned out to be 7.13 mg/kg-day.
Compound `CNN` [Methylhydrazine] displayed an NOAEL in the data set on Rattus norvegicus [1] (developmental, duration: 13 days, gavage, F, Sprague-Dawley, developmental) of 1 mg/kg-day.
In the case of `O=C1c2ccccc2C(=O)N1SC(Cl)(Cl)Cl` [Folpet], in the data set on Canidae [3] (setting [12]), the LEL is 60 mg/kg-day. For the same compound, the NOEL in the data set on Canidae [3] (setting [12]) came to 10 mg/kg-day; in the data set with Canidae [2] (chronic, duration: 1 years, capsule, Blood: Altered chemistry + Whole body: Altered weight gain), 10 mg/kg-day; in the data set with Rattus norvegicus [4] (Hershberger, duration: 10 days, oral, gavage, Sprague-Dawley, inactive + Negative + Negative + neither + decrease in LABC and epididymis at 400 and 800 / decrease in liver and body wt (8% at 200 / 14…), 200 mg/kg-day.
For `CCC(CC)Nc1c([N+](=O)[O-])cc(C)c(C)c1[N+](=O)[O-]` [Pendimethalin], the LEL in the data set on Canidae [3] (setting [13]) was 50 mg/kg-day; in the data set on Rattus norvegicus [4] (duration: 3 days, oral), 300 mg/kg-day. In addition, the NOEL was determined as 12.5 mg/kg-day in the data set with Canidae [3] (setting [13]) and 12.5 mg/kg-day in the data set with Canidae [2] (chronic, duration: 2 years, capsule, Liver: Effects).
On to `O=C1C2(Cl)C3(Cl)C4(Cl)C(Cl)(Cl)C5(Cl)C3(Cl)C1(Cl)C5(Cl)C24Cl` (stereo unspecified) [Kepone], for which the NOAEL in the data set on Rattus norvegicus [5] (chronic, duration: 2 years, diet, M/F, Wistar, renal) is 0.089 mg/kg-day; in the data set on Rattus norvegicus [5] (short-term, duration: 10 days, gavage, M, Fischer 344, neurological) it was 1.25 mg/kg-day; in the data set on Rattus norvegicus [5] (subchronic, duration: 90 days, diet, M, Sprague-Dawley, neurological, reproductive), 0.26 mg/kg-day; in the data set with Rattus norvegicus [7], 0.08 mg/kg-day. The LEL was 10 mg/kg-day in the data set with Rattus norvegicus [4] (duration: 1 days, injection, subcutaneous); 0.2 mg/day in the data set on Rattus norvegicus [4] (duration: 2 days, injection, subcutaneous); 15 mg/kg-day and 20 mg/kg-day and 30 mg/kg-day in the data set on Rattus norvegicus [4] (setting [14]); 1 mg/kg-day with Mus musculus [6] (setting [14]). The LOAEL with Rattus norvegicus [7] amounted to 0.4 mg/kg-day.
For the compound `ClC=C(Cl)CCl` [1,2,3-Trichloropropene], in the data set on Rattus norvegicus [1] (short-term, duration: 4 weeks, gavage, M/F, Crl:CD(SD), respiratory), the NOAEL was 30 mg/kg-day.
Take `O=C(c1ccccc1)c1ccc(O)cc1O` [2,4-Dihydroxybenzophenone]: the LEL in the data set on Rattus norvegicus [4] (duration: 3 days, injection, intraperitoneal) was 500 mg/kg-day; in the data set on Mus musculus [6] (duration: 7 days, injection, subcutaneous), 300 mg/kg-day; with Mus musculus [6] (duration: 7 days, oral) it was 1000 mg/kg-day.
Regarding `CCCN(CCC)c1c([N+](=O)[O-])cc(C(F)(F)F)cc1[N+](=O)[O-]` [Trifluralin], in the data set on Canidae [3] (setting [15]), the LEL is 3.75 mg/kg-day and the NOEL turned out to be 0.75 mg/kg-day. In addition, the NOEL in the data set with Canidae [2] (chronic, duration: 12 months, diet, Blood: Methemoglobinemia + Liver: Increased weight) was determined as 0.75 mg/kg-day. In addition, in the data set on Rattus norvegicus [4] (setting [16]), the LOEL was 250 mg/kg-day and 450 mg/kg-day; the NOEL is 75 mg/kg-day and 150 mg/kg-day.
In the data set on Rattus norvegicus [1] (reproduction developmental, diet, F, Sprague-Dawley), `c1ccc(Nc2ccc(Nc3ccccc3)cc2)cc1` [N,N'-Diphenyl-p-phenylenediamine] returned an NOAEL of 0.3 mg/kg-day. Besides, the NOEL with Rattus norvegicus [8] is 1000 mg/kg-day.
For the compound `CCCCCCCCCC` [Decane], the NOAEL with Rattus norvegicus [1] (subchronic, duration: 8 weeks, gavage, M/F, Sprague-Dawley) is 1000 mg/kg-day.
Take `CC1=CC(=O)CC(C)(C)C1` [Isophorone]: the NOEL came out at 150 mg/kg-day with Canidae [3] (subchronic, duration: 90 days, diet, no effects); 150 mg/kg-day with Canidae [2] (subchronic, duration: 90 days, capsule, Kidney: Lesions); 200 mg/kg-day in the data set with Rattus norvegicus [4] (Hershberger, duration: 10 days, oral, gavage, Sprague-Dawley, inactive + Negative + Negative + neither + increase age at PPS, decrease wt of SV, decrease testosterone at 800 / NS increase in liver wt …). This compound also displayed an LEL in the data set on Rattus norvegicus [9] of 250 mg/kg-day. This compound also had an NOAEL with Rattus norvegicus [5] (subchronic, duration: 90 days, diet, F, other) of 312 mg/kg-day. Also, the lowest observed adverse effect level (LOAEL) in the data set with Mus musculus [10] was 179 mg/kg-day.
With `C#CC(C)(C)NC(=O)c1cc(Cl)cc(Cl)c1` [Propyzamide], the NOEL in the data set on Canidae [3] (chronic, duration: 2 years, diet, no effects) is 7.5 mg/kg-day; in the data set with Canidae [2] (chronic, duration: 2 years, diet, None Observed), 7.5 mg/kg-day; in the data set on Rattus norvegicus [4] (Hershberger, duration: 10 days, oral, gavage, Sprague-Dawley, active + Negative + Antiandrogenic + anti-androgenic + two studies / first one doses were high but effects observed on AST wt and delayed …) it was 40 mg/kg-day.
